From ChEMBL document CHEMBL1806363, “New substrate analogue furin inhibitors derived from 4-amidinobenzylamide” (Bioorg Med Chem Lett, 2011)

Target: Furin (Homo sapiens, UniProt P09958)
Experiment: Inhibition of recombinant human furin expressed in CHO cells using pyroGlu- Arg-Thr-Lys-Arg-AMC as the substrate after 30 mins
Assay type: cell-based

Sequence of Furin (P09958 whole entry): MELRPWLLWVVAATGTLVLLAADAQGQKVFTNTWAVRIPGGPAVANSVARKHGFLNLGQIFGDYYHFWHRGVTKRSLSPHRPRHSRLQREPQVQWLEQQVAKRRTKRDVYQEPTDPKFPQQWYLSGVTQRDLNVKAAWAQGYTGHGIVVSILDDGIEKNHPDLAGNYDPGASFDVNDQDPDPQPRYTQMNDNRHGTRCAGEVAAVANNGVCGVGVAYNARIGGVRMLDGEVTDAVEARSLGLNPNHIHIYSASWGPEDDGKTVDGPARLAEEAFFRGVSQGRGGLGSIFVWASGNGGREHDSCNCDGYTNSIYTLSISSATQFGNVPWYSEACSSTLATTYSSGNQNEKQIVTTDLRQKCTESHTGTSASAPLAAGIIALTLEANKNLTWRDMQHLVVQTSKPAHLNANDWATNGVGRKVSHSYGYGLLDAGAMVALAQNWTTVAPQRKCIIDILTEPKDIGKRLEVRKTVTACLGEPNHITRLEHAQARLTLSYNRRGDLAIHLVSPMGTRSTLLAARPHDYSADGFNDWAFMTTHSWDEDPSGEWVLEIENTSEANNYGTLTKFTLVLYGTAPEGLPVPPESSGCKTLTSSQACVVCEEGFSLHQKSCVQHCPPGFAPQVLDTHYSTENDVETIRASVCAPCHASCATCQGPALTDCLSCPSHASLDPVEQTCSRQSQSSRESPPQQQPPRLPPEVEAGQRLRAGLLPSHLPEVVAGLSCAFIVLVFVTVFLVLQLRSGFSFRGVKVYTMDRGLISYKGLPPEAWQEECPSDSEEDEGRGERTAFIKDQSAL

SMILES	Ki [nM]
CC(C)[C@H](NC(=O)Cc1ccccc1)C(=O)N[C@H](CCCN=C(N)N)C(=O)N[C@@H](CCCN=C(N)N)C(=O)NCc1ccc(C(=N)N)cc1	7340
NC(N)=NCCC[C@H](NC(=O)[C@@H](CCCN=C(N)N)NC(=O)Cc1ccccc1)C(=O)O	3200
CC(C)[C@H](NC(=O)[C@H](CCCN=C(N)N)NC(=O)Cc1ccccc1)C(=O)N[C@@H](CCCCN)C(=O)NCc1ccc(C(=N)N)cc1	1.5
N=C(N)c1ccc(CNC(=O)[C@H](CCCCN)NC(=O)[C@H](CN)NC(=O)[C@H](CCCN=C(N)N)NC(=O)Cc2ccccc2)cc1	3.7
